Laboratory results taken from the supplement of paper PMC10307832.

Columns and labels:
Assay in all cases: relative viability (nuclei count vs DMSO), 5 days (fraction); higher = more cells survive
17-AAG + Luminespib = compound: C=CCNC1=C2C[C@@H](C)C[C@H](OC)[C@H](O)[C@@H](C)/C=C(\C)[C@H](OC(N)=O)[C@@H](OC)/C=C\C=C(/C)C(=O)NC(=CC1=O)C2=O [17-AAG] + CCNC(=O)c1noc(-c2cc(C(C)C)c(O)cc2O)c1-c1ccc(CN2CCOCC2)cc1 [Luminespib] (partner 0.01 µM)
Method in brief: (§1)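 Lung cancer cell lines in 1536-well plates got either a single drug or a fixed anchor-drug dose together with five library-drug doses (not always all listed) in √10 steps, by pin tool, on the day after seeding. Nuclei were counted after 5 days, and relative viability is the treated-to-vehicle ratio of nuclei counts. Values are medians of duplicate plates.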

17-AAG + Dasatinib = compound: C=CCNC1=C2C[C@@H](C)C[C@H](OC)[C@H](O)[C@@H](C)/C=C(\C)[C@H](OC(N)=O)[C@@H](OC)/C=C\C=C(/C)C(=O)NC(=CC1=O)C2=O [17-AAG] + Cc1nc(Nc2ncc(C(=O)Nc3c(C)cccc3Cl)s2)cc(N2CCN(CCO)CC2)n1 [Dasatinib] (partner 0.075 µM)
Method in brief: as §1

17-AAG + Bortezomib = compound: C=CCNC1=C2C[C@@H](C)C[C@H](OC)[C@H](O)[C@@H](C)/C=C(\C)[C@H](OC(N)=O)[C@@H](OC)/C=C\C=C(/C)C(=O)NC(=CC1=O)C2=O [17-AAG] + CC(C)C[C@H](NC(=O)[C@H](Cc1ccccc1)NC(=O)c1cnccn1)B(O)O [Bortezomib] (partner 0.002 µM)
Method in brief: as §1

17-AAG + Navitoclax = compound: C=CCNC1=C2C[C@@H](C)C[C@H](OC)[C@H](O)[C@@H](C)/C=C(\C)[C@H](OC(N)=O)[C@@H](OC)/C=C\C=C(/C)C(=O)NC(=CC1=O)C2=O [17-AAG] + CC1(C)CCC(c2ccc(Cl)cc2)=C(CN2CCN(c3ccc(C(=O)NS(=O)(=O)c4ccc(N[C@H](CCN5CCOCC5)CSc5ccccc5)c(S(=O)(=O)C(F)(F)F)c4)cc3)CC2)C1 [Navitoclax] (partner 0.5 µM)
Method in brief: as §1

| Cell Line | relative viability (17-AAG + Luminespib; first compound 0.00128 µM) | relative viability (17-AAG + Luminespib; first compound 0.004048 µM) | relative viability (17-AAG + Luminespib; first compound 0.0128 µM) | relative viability (17-AAG + Luminespib; first compound 0.04048 µM) | relative viability (17-AAG + Luminespib; first compound 0.128 µM) | relative viability (17-AAG + Dasatinib; first compound 0.00128 µM) | relative viability (17-AAG + Dasatinib; first compound 0.004048 µM) | relative viability (17-AAG + Dasatinib; first compound 0.0128 µM) | relative viability (17-AAG + Dasatinib; first compound 0.04048 µM) | relative viability (17-AAG + Dasatinib; first compound 0.128 µM) | relative viability (17-AAG + Bortezomib; first compound 0.00128 µM) | relative viability (17-AAG + Bortezomib; first compound 0.004048 µM) | relative viability (17-AAG + Bortezomib; first compound 0.0128 µM) | relative viability (17-AAG + Bortezomib; first compound 0.04048 µM) | relative viability (17-AAG + Bortezomib; first compound 0.128 µM) | relative viability (17-AAG + Navitoclax; first compound 0.00128 µM) | relative viability (17-AAG + Navitoclax; first compound 0.004048 µM) | relative viability (17-AAG + Navitoclax; first compound 0.0128 µM) | relative viability (17-AAG + Navitoclax; first compound 0.04048 µM) | relative viability (17-AAG + Navitoclax; first compound 0.128 µM) |
| --- | --- | --- | --- | --- | --- | --- | --- | --- | --- | --- | --- | --- | --- | --- | --- | --- | --- | --- | --- | --- |
| LC-2-ad | 0.949 | 0.83 | 0.305 | 0.302 | 0.258 | 0.546 | 0.418 | 0.18 | 0.198 | 0.12 | 0.97 | 1.05 | 0.665 | 0.119 | 0.105 | 0.525 | 0.565 | 0.393 | 0.234 | 0.111 |
| LCLC-97TM1 | 0.826 | 0.785 | 0.707 | 0.58 | 0.195 | 0.796 | 0.813 | 0.777 | 0.224 | 0.159 | 0.431 | 0.614 | 0.249 | 0.125 | 0.0923 | 0.47 | 0.573 | 0.518 | 0.378 | 0.355 |
| LOU-NH91 | 0.345 | 0.239 | 0.282 | 0.3 | 0.291 | 0.535 | 0.421 | 0.359 | 0.295 | 0.273 | 0.483 | 0.512 | 0.394 | 0.401 | 0.381 | 0.608 | 0.525 | 0.32 | 0.332 | 0.297 |
| LU99A | 0.239 | 0.201 | 0.213 | 0.169 | 0.146 | 0.508 | 0.387 | 0.283 | 0.13 | 0.0659 | 1.06 | 1.05 | 0.672 | 0.445 | 0.119 | 0.817 | 0.821 | 0.921 | 0.271 | 0.132 |
| LXF-289 | 0.628 | 0.556 | 0.377 | 0.121 | 0.0993 | 0.234 | 0.183 | 0.0975 | 0.064 | 0.0605 | 0.99 | 0.994 | 0.815 | 0.478 | 0.108 | 0.995 | 0.907 | 0.891 | 0.536 | 0.184 |
| NCI-H23 | 0.242 | 0.208 | 0.19 | 0.206 | 0.202 | 0.697 | 0.746 | 0.389 | 0.165 | 0.119 | 0.92 | 0.635 | 0.232 | 0.168 | 0.127 | 0.922 | 0.836 | 0.688 | 0.167 | 0.125 |
| NCI-H322M | 0.663 | 0.274 | 0.285 | 0.274 | 0.289 | 0.284 | 0.302 | 0.256 | 0.257 | 0.268 | 1.28 | 1.38 | 1.35 | 0.929 | 0.493 | 1.15 | 1.18 | 1.26 | 0.573 | 0.564 |
| NCI-H441 | 0.278 | 0.197 | 0.196 | 0.181 | 0.17 | 0.587 | 0.45 | 0.129 | 0.122 | 0.127 | 0.506 | 0.395 | 0.199 | 0.181 | 0.14 | 0.527 | 0.335 | 0.157 | 0.262 | 0.131 |
| NCI-H460 | 0.0254 | 0.0275 | 0.0254 | 0.0299 | 0.023 | 0.518 | 0.462 | 0.0434 | 0.0267 | 0.019 | 1.03 | 0.677 | 0.0227 | 0.0175 | 0.0128 | 0.986 | 1.08 | 0.0303 | 0.0146 | 0.0215 |
| NCI-H520 | 0.236 | 0.22 | 0.227 | 0.202 | 0.188 | 0.241 | 0.236 | 0.21 | 0.169 | 0.121 | 0.512 | 0.58 | 0.251 | 0.14 | 0.0925 | 1.09 | 0.836 | 1.03 | 0.19 | 0.161 |
| NCI-H596 | 1.08 | 0.865 | 0.996 | 0.548 | 0.414 | 0.587 | 0.524 | 0.579 | 0.587 | 0.238 | 0.991 | 0.974 | 1.09 | 0.994 | 0.844 | 1.02 | 0.91 | 0.908 | 0.834 | 0.518 |
| NCI-H647 | 0.128 | 0.122 | 0.098 | 0.109 | 0.0989 | 0.193 | 0.112 | 0.0468 | 0.107 | 0.0735 | 0.912 | 0.761 | 0.0902 | 0.1 | 0.0699 | 1.23 | 1.01 | 0.11 | 0.104 | 0.0816 |
| NCI-H727 | 0.607 | 0.245 | 0.331 | 0.316 | 0.284 | 0.378 | 0.376 | 0.326 | 0.231 | 0.214 | 0.795 | 0.766 | 0.784 | 0.322 | 0.229 | 0.426 | 0.455 | 0.214 | 0.206 | 0.226 |
| NCI-H838 | 0.192 | 0.196 | 0.151 | 0.157 | 0.12 | 0.291 | 0.269 | 0.203 | 0.186 | 0.2 | 0.962 | 0.653 | 0.124 | 0.136 | 0.0816 | 1.15 | 1.12 | 1.07 | 0.165 | 0.166 |
| NCI-H1355 | 0.649 | 0.685 | 0.457 | 0.337 | 0.18 | 0.708 | 0.725 | 0.327 | 0.325 | 0.156 | 1.21 | 1.11 | 1.28 | 0.26 | 0.144 | 0.927 | 0.944 | 0.958 | 0.449 | 0.373 |
